In patent US11357750B2, “Cysteamine prodrugs” (Children's Hospital Medical Center, priority 2017, dated 2022):
Where a name gives a salt, the structure may show the parent alone.

Legend:
[1] = Pharmacokinetic (PK) study of cysteamine in plasma after oral dosing in rats, blood sampling from portal vein and heart (HPV protocol); type: in vivo, rat
Description: Absorption and hepatic extraction information after oral administration and blood sampling from portal vein and heart (HPV protocol) were evaluated.
Blood samples were collected at intervals up to 24 h after dose administration (n=3 animals per each time point).
Sample Collection and Handling: After PO administration, blood samples were collected under deep Isofluorane anesthesia from portal vein and heart of each rat (3 rats per each time point). Blood was collected into potassium EDTA tubes at each of the following time points post-dose (actual times will be recorded): 0.25, 0.5, 1, 2, 4, 6, 8, 12 and 24 hours after dosing. All blood samples were thoroughly, but gently mixed following collection, placed on ice and centrifuged as soon as possible (2000 g for 5 min at 0° C.) to prepare plasma. Duplicate 50 μL aliquots of plasma samples were transferred in micronic tubes.
Plasma Sample Preparation: • 1. Calibration standards (CS) and quality control (QC) plasma samples were prepared by adding 5 μL WS to 45 μL of fresh plasma into micronic tubes using Tecan. • 2. Pseudo QC were prepared by adding 5 μL WSQC to 45 μL of water into micronic tubes using Tecan. • 3. CS, QC, pseudo QC and blank were diluted with 200 μL of KCl solution (1.15%). • 4. Plasma collection was performed by laboratory automation system (LAS). 50 μL whole plasma was transferred into micronic tubes containing 200 μL of KCl solution (1.15%). • 5. All samples were added […] with 20 μL of glutathione ethyl ester as internal standard (0.01 mg/mL in water) and 100 μL of Ellman's reagent (10 mM in water). • 6. […]
Plasma sample analysis: Samples were assayed for cysteamine using a method based on protein precipitation followed by HPLC/MS-MS analysis. Study samples were analyzed in discrete batches together with calibration standards (CS), used to construct calibration curves and blank samples (including also double blanks), used to assess specificity. […] The presence of prodrug and its products were monitored but not quantified in both portal and systemic plasma. […]

[2] = cited from earlier work
[3] = tested on: intracellular cystine (circulating white blood cells); details: taken regularly; measured in circulating white blood cells; cited from earlier work

Cl.NCCS.OCC(O)CO [Glycerol Cysteamine Hydrochloride, glycerol cysteamine hydrochloride]
Release of cysteamine hydrochloride from the glycerol prodrug moiety (conclusion) ([1]; rats PO, gastrointestinal (GI) tract): fully separated from the glycerol prodrug moiety in the gastrointestinal (GI) tract
Cysteamine levels in portal plasma after prodrug administration ([1]; rats PO, versus cysteamine hydrochloride administration): comparable to those observed after cysteamine hydrochloride administration

NCCS [cysteamine, 2-aminoethane-1-thiol]
Duration of activity (short half-life) ([2]; in vivo): 5 to 6 h
Estimated bioavailability ([2]; oral administration, extensive first pass metabolism): 10-30%
Depletion of intracellular cystine [3]: up to 90%

NCCS [Cysteamine Hydrochloride, cysteamine hydrochloride]
Fa % (fraction absorbed) ([1]; male, CD, rat, in vivo, po): 16.1%
